According to US20020169153A1, “Substituted aromatic compounds for treatment of antibiotic resistant infections” (priority 1998, published 2002):

Tested on: Staphylococcus aureus methicillin-resistant wild type T67738
Test: Susceptibility test, microtiter broth dilution (MIC), resistant S. aureus
Assay type: cell-based
Settings: in culture
Method: The strains were streaked on blood agar plates (trypticase soy broth containing 5% sheep cells). A single colony was isolated and grown in Mueller-Hinton Broth (MHB) as recommended by the national Committee for Clinical Laboratory Standards for rapidly growing bacteria. Candida species and related yeasts were isolated in a similar manner on brain-heart infusion agar (BHI).
The antibiotic susceptibility profile of each strain was determined using standard microtiter dilution plates obtained from the Clinical Microbiology Laboratory at Ohio State University Hospitals. The Inocula were prepared by suspending a 4 hour log phase growth in MHB visually equal in turbidity of an 0.5 McFarland standard. Inocula were further diluted and added to microdilution trays to achieve a final density of approximately 1×10^5 CFU/ml. The trays were incubated for 16 to 20 hours at 35° C. The highest dilution at which wells remained clear was considered to be the minimum inhibitory concentration (MIC).
The MIC and minimum bacterial concentration (MBC) of the strains to the active agents were determined by two-fold dilutions in Mueller-Hinton broth. […]

OC(c1c2cccc(Cl)c2cc2c(Cl)cccc12)C1CCCCN1 (stereo not drawn) [WR 218394, α-(2-PIPERIDYL)-4,5-DICHLORO-9-ANTHRACENEMETHANOL]
Effective Concentration S. Aureous (Resist).: 3.1 µg/mL
